This passage reports GI50 and TGI results from PubChem BioAssay (NCI).

The structures appear in SMILES notation. Values joined by “and” are separate entries in the source; they are usually repeats but may differ in a detail not shown here. Equal entries are not always repeated.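 Where inhibition never reached the appropriate level, the endpoint shown equals the highest concentration tested. Otherwise, values were interpolated linearly from a five-concentration, 48-hour dose response in 96-well plates. Abbreviation: GI50, concentration required for 50% inhibition of growth. TGI denotes the concentration required for complete inhibition of growth.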

Among the test systems are CAKI-1 renal; CCRF-CEM leukemia; DU-145 prostate; HCT-15 colon; MDA-MB-435; NCI-H522 lung; RPMI-8226 leukemia; SK-MEL-28 melanoma; SN12C renal; SW-620 colon.
Common to all, as to test: NCI tumour cell line growth inhibition, 48 h

With `Cc1ccc(Nc2nccc(N(C)c3ccc4c(C)n(C)nc4c3)n2)cc1S(N)(=O)=O`, the GI50 is 1.43 µM and 4.39 µM in the experiment on CAKI-1 renal; 4.37 µM and 7.01 µM and 8.07 µM in the experiment with CCRF-CEM leukemia; 5.21 µM and 5.4 µM and 11.5 µM with DU-145 prostate; 4.04 µM and 2.77 µM and 5.98 µM in the experiment with HCT-15 colon; 3.93 µM and 0.758 µM and 6.37 µM in the experiment with MDA-MB-435; 5.33 µM and 4 µM and 10.7 µM in the experiment on NCI-H522 lung. In addition, the GI50 was 10.8 µM and 2.61 µM and 6.49 µM in the experiment with RPMI-8226 leukemia; 3.77 µM and 2.65 µM and 6.38 µM in the experiment with SN12C renal. Further, the TGI is > 100 µM with CAKI-1 renal; > 100 µM in the experiment on CCRF-CEM leukemia; > 100 µM with DU-145 prostate; > 100 µM in the experiment on HCT-15 colon; > 100 µM and > 10 µM and 34.4 µM in the experiment on MDA-MB-435; 39 µM and > 10 µM and 28 µM in the experiment on NCI-H522 lung. The TGI is > 100 µM and > 10 µM and 31.6 µM in the experiment on RPMI-8226 leukemia; > 100 µM and > 10 µM and 84.2 µM in the experiment with SK-MEL-28 melanoma; > 100 µM in the experiment on SN12C renal; > 100 µM in the experiment on SW-620 colon.

For `COc1cc(C2CC(c3cccc(Nc4ccnc5cc(Cl)ccc45)c3)=NN2c2ccc(Cl)cc2)cc(OC)c1OC` (stereo not drawn), the GI50 with CAKI-1 renal was 0.693 µM; with CCRF-CEM leukemia it was 4.84 µM; in the experiment on DU-145 prostate, 17.1 µM; in the experiment with HCT-15 colon it was 1.28 µM; in the experiment on MDA-MB-435 it was 0.804 µM; in the experiment with NCI-H522 lung, 1.57 µM. In addition, the GI50 was 3.69 µM in the experiment on RPMI-8226 leukemia, 4.54 µM with SK-MEL-28 melanoma, 7.24 µM with SN12C renal and 0.666 µM with SW-620 colon. For the same molecule, the TGI in the experiment on CAKI-1 renal was > 100 µM; in the experiment on CCRF-CEM leukemia, > 100 µM; in the experiment on DU-145 prostate, > 100 µM; in the experiment on HCT-15 colon, > 100 µM; in the experiment on MDA-MB-435 it was 6.58 µM; with NCI-H522 lung, 22.8 µM. For the same molecule, the TGI in the experiment on RPMI-8226 leukemia, with SK-MEL-28 melanoma, with SN12C renal and with SW-620 colon was > 100 µM in each case.

Regarding `CC/C=C\C[C@H](F)C/C=C1/C(=O)C=C[C@@H]1C/C=C\CCCC(=O)OC`, the GI50 with CAKI-1 renal was 1.87 µM; in the experiment on CCRF-CEM leukemia, 1.38 µM; in the experiment with DU-145 prostate, 3.17 µM; in the experiment with HCT-15 colon, 1.19 µM; with MDA-MB-435, 1.25 µM; in the experiment with NCI-H522 lung, 1.32 µM. Besides, the GI50 is 1.39 µM with RPMI-8226 leukemia, 1.52 µM in the experiment on SK-MEL-28 melanoma, 1.25 µM with SN12C renal and 1.62 µM with SW-620 colon. The TGI in the experiment with CAKI-1 renal was determined as 6.82 µM; with CCRF-CEM leukemia, 5.75 µM; with DU-145 prostate, 9.81 µM; in the experiment with HCT-15 colon, 4.42 µM; in the experiment with MDA-MB-435, 3.37 µM; in the experiment with NCI-H522 lung, 5.08 µM. In addition, the TGI with RPMI-8226 leukemia worked out at 5.49 µM; with SK-MEL-28 melanoma, 4.94 µM; in the experiment on SN12C renal, 3.24 µM; in the experiment with SW-620 colon, 4.73 µM.

`CN(C)CCCN(CCC1CCCCC1)CCC1CCCCC1`: the GI50 was 2.65 µM in the experiment on CAKI-1 renal; 1.72 µM in the experiment on CCRF-CEM leukemia; 5.56 µM with DU-145 prostate; 1.46 µM with HCT-15 colon; 1.35 µM with MDA-MB-435; 3.1 µM in the experiment with NCI-H522 lung. Moreover, the GI50 is 0.424 µM in the experiment with RPMI-8226 leukemia, 0.593 µM in the experiment on SK-MEL-28 melanoma, 9.79 µM in the experiment with SN12C renal and 1.75 µM in the experiment on SW-620 colon. Further, the TGI with CAKI-1 renal came out at 8.06 µM; in the experiment with CCRF-CEM leukemia it was 6.38 µM; in the experiment on DU-145 prostate, 17.7 µM; in the experiment on HCT-15 colon, 3.59 µM; in the experiment on MDA-MB-435 it was 3.03 µM; with NCI-H522 lung it was 8.3 µM. In addition, the TGI in the experiment with RPMI-8226 leukemia worked out at 3.86 µM; in the experiment on SK-MEL-28 melanoma it was 1.18 µM; with SN12C renal, 22.9 µM; in the experiment with SW-620 colon it was 3.31 µM.

On to `Cc1ccc2oc(=O)cc(/C(=C3/C=CC=N3)c3ccc[nH]3)c2c1`, for which the GI50 is 0.53 µM in the experiment with CAKI-1 renal; 0.29 µM in the experiment on CCRF-CEM leukemia; 0.361 µM in the experiment with DU-145 prostate; 0.298 µM in the experiment with HCT-15 colon; 0.211 µM in the experiment on MDA-MB-435; 1.53 µM in the experiment with NCI-H522 lung. Further, the GI50 in the experiment on RPMI-8226 leukemia was 0.297 µM; with SK-MEL-28 melanoma it was 0.611 µM; in the experiment on SN12C renal, 0.672 µM; with SW-620 colon it was 0.396 µM. Also, the TGI in the experiment with CAKI-1 renal is 10.6 µM; with CCRF-CEM leukemia it was 4.01 µM; with DU-145 prostate it was 10.8 µM; in the experiment with HCT-15 colon, 10.1 µM; with MDA-MB-435, 0.544 µM; with NCI-H522 lung, 5.22 µM. The TGI amounted to 1.16 µM in the experiment on RPMI-8226 leukemia, 3.46 µM in the experiment on SK-MEL-28 melanoma, 3.36 µM in the experiment with SN12C renal and 13.7 µM with SW-620 colon.

As to `CN(C)CCN1C(=O)c2cccc3cc([N+](=O)[O-])cc(c23)C1=O`, the TGI in the experiment on CAKI-1 renal was 1.76 µM; in the experiment on CCRF-CEM leukemia it was 0.798 µM; with DU-145 prostate, > 100 µM; in the experiment on HCT-15 colon it was 4.2 µM; in the experiment with MDA-MB-435, 4.66 µM; in the experiment on NCI-H522 lung it was 2.12 µM. For the same molecule, the TGI in the experiment with RPMI-8226 leukemia was 10.2 µM; in the experiment with SK-MEL-28 melanoma, 6.85 µM; with SN12C renal it was 1.69 µM; with SW-620 colon it was 3.7 µM.

For the molecule `CC(=O)Nc1cc2cc(N)ccc2oc1=O`, the TGI with CAKI-1 renal, in the experiment with CCRF-CEM leukemia, in the experiment on DU-145 prostate, with HCT-15 colon, with MDA-MB-435 and with NCI-H522 lung was > 100 µM throughout. The TGI in the experiment on RPMI-8226 leukemia, with SK-MEL-28 melanoma, in the experiment on SN12C renal and with SW-620 colon was > 100 µM throughout.

For `C=C1CC2(CC(c3ccccc3Cl)OC(c3ccccc3Cl)C2)OC1=O` (stereo not drawn), the TGI in the experiment with CAKI-1 renal was determined as 5.11 µM; with CCRF-CEM leukemia it was 10.1 µM; in the experiment with DU-145 prostate, 14.4 µM; with HCT-15 colon it was 5.58 µM; with MDA-MB-435, 3.51 µM; in the experiment with NCI-H522 lung, 3.3 µM. In addition, the TGI is 3.84 µM with RPMI-8226 leukemia, 3.65 µM with SK-MEL-28 melanoma, 5.75 µM in the experiment with SN12C renal and 5.21 µM in the experiment on SW-620 colon.

Take `COc1cc(Oc2c(C)c(Cl)c(OC)c(Cl)c2OC)c2c(c1Cl)COC2=O`: the TGI with CAKI-1 renal is > 100 µM; with CCRF-CEM leukemia it was > 100 µM; in the experiment with DU-145 prostate, > 100 µM; in the experiment with HCT-15 colon it was > 100 µM; in the experiment with MDA-MB-435, > 100 µM; with NCI-H522 lung, 33.7 µM. For the same molecule, the TGI with RPMI-8226 leukemia was 13.1 µM; with SK-MEL-28 melanoma, > 100 µM; in the experiment with SN12C renal it was 59.7 µM; in the experiment with SW-620 colon, > 100 µM.
